The values that follow are results of earlier work, collected in patent US20170245500A1 (priority 2014, published 2017).

For the data set the following is noted: some conditions, e.g. high temperature or higher soil pH.

Turning to `CCOP(=O)(SC(C)CC)N1CCSC1=O` (stereo not shown) [fosthiazate], the “time in which the pesticide can be degraded in soil” value is “under ten”.
